Holding throughout (assay type): cell-based
The target of experiment [1] is T1, BaF3 (EGFR/D770insSVD) (Homo sapiens, UniProt P00533, DUP768-770, cells depend on it).
T1 construct: Test 13 IC50 (nM); other: BaF3 (EGFR/D770insSVD), 72 hours, Cell Titer-Glo
The experiment can be described thus: Test 13: EGFR exon 20 inserted D770insSVD cell proliferation test. To be noted: BaF3 (EGFR/D770insSVD), 72 hours, Cell Titer-Glo, read-out: Test 13 IC50. Here is the method: (§1) Test 13: EGFR Exon 20 Inserted D770insSVD Cell Proliferation Test
(§2) The number of viable cells in the culture was measured according to the protocol described in Promega's Cell Titer-Glo Luminescent cell Viability Assay (Promega catalog number #G7570). 90 μl of cells (3,000 cells/well) were cultured in growth medium in a Corning black transparent bottom 96-well plate, and cultured in a 5% CO2 humidified incubator at 37° C. overnight. The compound serially diluted in 100% DMSO was added to the cells using a pipette, and the cells were incubated for another 72 hours. 100 μl of the mixed Cell Titer-Glo reagent was added to the cells in the 96-well culture plate to lyse the cells and mix gently. Subsequently, the […] was detected on the Envision microplate detector to obtain the data of each compound. Finally, the data was input into a suitable software package (such as Prism) for curve fitting analysis.
A general note: ATP-based viability assays read luminescence as a measure of living cells.

Experiment [2] concerns the target T2, BaF3 (EGFR/D770insSVD) (Homo sapiens, UniProt P00533, cells depend on it, form not given).
T2 construct: other: A763insFQEA, V769ins
The description is as above. As to conditions: A763insFQEA, V769insASV, D770insSVD (tests 13-15), in words. Here is the method: as §1, §2

Experiment [3] addresses BaF3 (EGFR/V769insASV) (Homo sapiens, UniProt P00533, DUP767-769, cells depend on it). Description: Test 15: EGFR exon 20 inserted V769insASV cell proliferation test. As to conditions: 72 hours, Cell Titer-Glo, read-out: Test 15 IC50. Here is the method:
Test 15: EGFR Exon 20 Inserted V769insASV Cell Proliferation Test
as §2, with “(3000” for “(3,000”

For experiment [4], the target named is BaF3 (EGFR/A763insFQEA) (Homo sapiens, UniProt P00533, INS763FQEA, cells depend on it). Description: Test 14: EGFR exon 20 inserted A763insFQEA cell proliferation test. To be noted: 72 hours, Cell Titer-Glo, read-out: Test 14 IC50. Here is the method: Test 14: EGFR Exon 20 Inserted A763insFQEA Cell Proliferation Test
BaF3 (EGFR/A763insFQEA), sequence (P00533 with tags, fused parts or gaps INS763FQEA): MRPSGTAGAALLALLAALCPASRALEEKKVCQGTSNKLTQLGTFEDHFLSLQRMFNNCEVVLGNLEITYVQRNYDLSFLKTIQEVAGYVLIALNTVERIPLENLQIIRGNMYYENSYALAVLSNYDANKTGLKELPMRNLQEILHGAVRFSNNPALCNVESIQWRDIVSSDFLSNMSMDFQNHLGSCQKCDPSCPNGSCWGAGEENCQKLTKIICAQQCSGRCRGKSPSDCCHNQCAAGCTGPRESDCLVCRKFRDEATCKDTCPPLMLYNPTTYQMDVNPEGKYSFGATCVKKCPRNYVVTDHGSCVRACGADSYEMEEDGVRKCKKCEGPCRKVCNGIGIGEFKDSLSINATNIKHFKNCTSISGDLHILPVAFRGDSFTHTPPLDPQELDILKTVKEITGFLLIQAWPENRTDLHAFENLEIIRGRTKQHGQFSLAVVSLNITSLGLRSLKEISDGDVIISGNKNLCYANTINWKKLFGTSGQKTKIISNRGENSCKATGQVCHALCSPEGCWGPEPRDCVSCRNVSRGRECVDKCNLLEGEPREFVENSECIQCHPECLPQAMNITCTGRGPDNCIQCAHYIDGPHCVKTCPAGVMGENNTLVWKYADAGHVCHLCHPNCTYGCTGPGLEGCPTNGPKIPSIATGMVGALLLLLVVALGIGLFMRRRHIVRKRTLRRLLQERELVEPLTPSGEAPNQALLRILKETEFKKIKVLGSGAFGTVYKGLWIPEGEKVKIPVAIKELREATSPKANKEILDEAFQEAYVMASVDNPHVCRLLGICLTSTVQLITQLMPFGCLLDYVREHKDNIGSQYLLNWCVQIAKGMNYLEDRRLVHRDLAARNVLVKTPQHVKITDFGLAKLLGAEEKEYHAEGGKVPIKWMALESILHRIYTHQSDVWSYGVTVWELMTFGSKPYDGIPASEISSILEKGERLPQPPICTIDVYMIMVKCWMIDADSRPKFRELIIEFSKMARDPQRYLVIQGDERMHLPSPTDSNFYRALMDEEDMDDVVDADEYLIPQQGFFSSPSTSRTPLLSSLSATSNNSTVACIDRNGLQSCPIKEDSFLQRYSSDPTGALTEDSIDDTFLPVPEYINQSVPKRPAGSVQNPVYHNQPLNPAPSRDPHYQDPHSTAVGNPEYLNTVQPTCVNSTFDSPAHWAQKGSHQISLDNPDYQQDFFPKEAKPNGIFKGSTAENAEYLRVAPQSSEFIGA
as §2

For experiment [5], the target named is BaF3 (EGFR-A763insFQEA) (Homo sapiens, UniProt P00533, INS763FQEA, cells depend on it). Description: Test 3: BaF3 (EGFR-A763insFQEA) cell proliferation test. To be noted: 72 hours, Cell Titer-Glo, read-out: Test 3 - IC50. Here is the method:
Test 3: BaF3 (EGFR-A763insFOEA) Cell Proliferation Test
BaF3 (EGFR-A763insFQEA) was cultured in RPMI1640 medium containing 10% fetal bovine serum and 2 mM glutamine. The cells were grown at 37° C. in a humidified incubator with 5% CO2.
as §2

Experiment [6] has as its target BaF3 (EGFR-V769insASV) (Homo sapiens, UniProt P00533, DUP767-769, cells depend on it). The experiment can be described thus: Test 4: BaF3 (EGFR-V769insASV) cell proliferation test. To be noted: 72 hours, Cell Titer-Glo, read-out: Test 4 - IC50. Here is the method:
Test 4: BaF3 (EGFR-V769insASV) Cell Proliferation Test
BaF3 (EGFR-V769insASV) was cultured in RPMI1640 medium containing 10% fetal bovine serum and 2 mM glutamine. The cells were grown at 37° C. in a humidified incubator with 5% CO2.
as §2

In experiment [7] the target is BaF3 (EGFR-D770insSVD) (Homo sapiens, UniProt P00533, DUP768-770, cells depend on it). The experiment can be described thus: Test 2: BaF3 (EGFR-D770insSVD) cell proliferation test. To be noted: 72 hours, Cell Titer-Glo, read-out: Test 2 - IC50. Here is the method: Test 2: BaF3 (EGFR-D770insSVD) Cell Proliferation Test
BaF3 (EGFR-D770insSVD) was cultured in RPMI1640 medium containing 10% fetal bovine serum and 2 mM glutamine. The cells were grown at 37° C. in a humidified incubator with 5% CO2.
as §2

Experiment [8] has as its system NCI-H1975 (EGFR L858R/T790M double mutant). Description: Test 1: EGFR L858R/T790M (EGFR double mutant) cell proliferation test. As to conditions: Homo sapiens; NCI-H1975 cells, 72 hours, Cell Titer-Glo. Here is the method: Test 1: EGFR L858R/T790M (EGFR Double Mutant) Cell Proliferation Test
The human lung cell line NCI-H1975 (EGFR L858R/T790M double mutant) was obtained from the American Type Culture Collection. NCI-H1975 cells were cultured in RPMI1640 medium containing 10% fetal bovine serum and 2 mM glutamine. The cells were grown at 37° C. in a humidified incubator with 5% CO2.
as §2, with “(8,000” for “(3,000”

SMILES strings stand for the structures. Structures can show the parent of a compound that is named as a salt. Where two headings read alike, the source gives them in different places.

Usually IC50 stands for the concentration that inhibits the measured activity by half.

T1 sequence (P00533 with tags, fused parts or gaps DUP768-770): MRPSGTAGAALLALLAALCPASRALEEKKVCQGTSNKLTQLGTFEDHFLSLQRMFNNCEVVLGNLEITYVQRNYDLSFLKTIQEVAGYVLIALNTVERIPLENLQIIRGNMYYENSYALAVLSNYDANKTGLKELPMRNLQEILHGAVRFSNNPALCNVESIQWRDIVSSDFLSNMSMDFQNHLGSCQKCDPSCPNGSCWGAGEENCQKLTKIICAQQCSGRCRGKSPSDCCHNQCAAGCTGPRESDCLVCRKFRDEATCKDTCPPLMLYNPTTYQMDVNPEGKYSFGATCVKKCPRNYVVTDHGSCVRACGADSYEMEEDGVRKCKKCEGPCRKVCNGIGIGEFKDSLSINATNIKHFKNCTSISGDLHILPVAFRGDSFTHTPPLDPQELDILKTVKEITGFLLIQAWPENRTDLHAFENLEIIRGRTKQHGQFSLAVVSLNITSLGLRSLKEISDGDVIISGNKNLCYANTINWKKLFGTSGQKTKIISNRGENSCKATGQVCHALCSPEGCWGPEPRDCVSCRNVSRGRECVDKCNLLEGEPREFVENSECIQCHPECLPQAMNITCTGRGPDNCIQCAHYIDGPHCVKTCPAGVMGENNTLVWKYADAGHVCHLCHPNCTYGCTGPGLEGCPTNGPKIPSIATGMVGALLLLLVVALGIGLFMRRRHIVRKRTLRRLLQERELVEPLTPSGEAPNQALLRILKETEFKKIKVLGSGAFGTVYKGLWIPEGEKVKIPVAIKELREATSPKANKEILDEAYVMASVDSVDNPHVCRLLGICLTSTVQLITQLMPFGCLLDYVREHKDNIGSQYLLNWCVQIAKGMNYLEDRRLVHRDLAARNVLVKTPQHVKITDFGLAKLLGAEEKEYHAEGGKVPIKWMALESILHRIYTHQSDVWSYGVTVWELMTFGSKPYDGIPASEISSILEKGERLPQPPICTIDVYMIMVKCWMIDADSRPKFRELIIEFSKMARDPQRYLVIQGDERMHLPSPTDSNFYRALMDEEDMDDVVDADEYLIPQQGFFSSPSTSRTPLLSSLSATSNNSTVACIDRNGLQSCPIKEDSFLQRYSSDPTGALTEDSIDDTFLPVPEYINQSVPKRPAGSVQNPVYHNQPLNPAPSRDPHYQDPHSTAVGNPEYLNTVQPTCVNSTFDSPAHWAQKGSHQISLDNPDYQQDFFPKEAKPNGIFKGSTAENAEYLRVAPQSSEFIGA
BaF3 (EGFR/V769insASV), sequence (P00533 with tags, fused parts or gaps DUP767-769): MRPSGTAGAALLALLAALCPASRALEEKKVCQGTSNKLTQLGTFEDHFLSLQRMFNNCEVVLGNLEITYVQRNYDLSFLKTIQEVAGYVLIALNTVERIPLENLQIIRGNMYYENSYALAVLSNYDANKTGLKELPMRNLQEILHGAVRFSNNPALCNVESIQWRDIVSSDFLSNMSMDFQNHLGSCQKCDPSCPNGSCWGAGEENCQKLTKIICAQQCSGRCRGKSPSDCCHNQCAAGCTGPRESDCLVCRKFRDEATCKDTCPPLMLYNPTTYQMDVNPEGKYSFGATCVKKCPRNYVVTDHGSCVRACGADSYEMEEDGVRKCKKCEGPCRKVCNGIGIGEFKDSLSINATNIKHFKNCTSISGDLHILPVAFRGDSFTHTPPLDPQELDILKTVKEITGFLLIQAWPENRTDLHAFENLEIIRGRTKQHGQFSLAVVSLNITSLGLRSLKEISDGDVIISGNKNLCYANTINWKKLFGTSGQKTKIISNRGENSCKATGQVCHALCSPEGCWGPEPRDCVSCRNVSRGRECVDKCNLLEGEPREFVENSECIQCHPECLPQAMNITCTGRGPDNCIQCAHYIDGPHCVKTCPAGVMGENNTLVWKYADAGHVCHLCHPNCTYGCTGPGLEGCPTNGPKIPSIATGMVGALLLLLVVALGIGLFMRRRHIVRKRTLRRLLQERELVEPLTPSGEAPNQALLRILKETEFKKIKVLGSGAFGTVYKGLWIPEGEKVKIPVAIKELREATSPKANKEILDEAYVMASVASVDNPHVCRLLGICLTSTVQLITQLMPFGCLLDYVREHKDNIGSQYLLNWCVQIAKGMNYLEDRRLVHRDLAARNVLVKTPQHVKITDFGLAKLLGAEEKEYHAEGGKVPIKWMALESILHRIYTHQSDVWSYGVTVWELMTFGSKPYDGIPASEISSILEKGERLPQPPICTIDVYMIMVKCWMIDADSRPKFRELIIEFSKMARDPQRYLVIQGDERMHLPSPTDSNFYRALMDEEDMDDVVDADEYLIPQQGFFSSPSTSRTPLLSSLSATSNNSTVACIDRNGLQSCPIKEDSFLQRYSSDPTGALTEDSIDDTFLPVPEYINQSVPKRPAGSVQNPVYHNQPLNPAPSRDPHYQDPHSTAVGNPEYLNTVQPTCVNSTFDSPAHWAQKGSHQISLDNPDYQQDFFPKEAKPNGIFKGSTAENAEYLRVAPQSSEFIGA
T2 sequence (P00533 25-1210 limits assumed, stated change not applied): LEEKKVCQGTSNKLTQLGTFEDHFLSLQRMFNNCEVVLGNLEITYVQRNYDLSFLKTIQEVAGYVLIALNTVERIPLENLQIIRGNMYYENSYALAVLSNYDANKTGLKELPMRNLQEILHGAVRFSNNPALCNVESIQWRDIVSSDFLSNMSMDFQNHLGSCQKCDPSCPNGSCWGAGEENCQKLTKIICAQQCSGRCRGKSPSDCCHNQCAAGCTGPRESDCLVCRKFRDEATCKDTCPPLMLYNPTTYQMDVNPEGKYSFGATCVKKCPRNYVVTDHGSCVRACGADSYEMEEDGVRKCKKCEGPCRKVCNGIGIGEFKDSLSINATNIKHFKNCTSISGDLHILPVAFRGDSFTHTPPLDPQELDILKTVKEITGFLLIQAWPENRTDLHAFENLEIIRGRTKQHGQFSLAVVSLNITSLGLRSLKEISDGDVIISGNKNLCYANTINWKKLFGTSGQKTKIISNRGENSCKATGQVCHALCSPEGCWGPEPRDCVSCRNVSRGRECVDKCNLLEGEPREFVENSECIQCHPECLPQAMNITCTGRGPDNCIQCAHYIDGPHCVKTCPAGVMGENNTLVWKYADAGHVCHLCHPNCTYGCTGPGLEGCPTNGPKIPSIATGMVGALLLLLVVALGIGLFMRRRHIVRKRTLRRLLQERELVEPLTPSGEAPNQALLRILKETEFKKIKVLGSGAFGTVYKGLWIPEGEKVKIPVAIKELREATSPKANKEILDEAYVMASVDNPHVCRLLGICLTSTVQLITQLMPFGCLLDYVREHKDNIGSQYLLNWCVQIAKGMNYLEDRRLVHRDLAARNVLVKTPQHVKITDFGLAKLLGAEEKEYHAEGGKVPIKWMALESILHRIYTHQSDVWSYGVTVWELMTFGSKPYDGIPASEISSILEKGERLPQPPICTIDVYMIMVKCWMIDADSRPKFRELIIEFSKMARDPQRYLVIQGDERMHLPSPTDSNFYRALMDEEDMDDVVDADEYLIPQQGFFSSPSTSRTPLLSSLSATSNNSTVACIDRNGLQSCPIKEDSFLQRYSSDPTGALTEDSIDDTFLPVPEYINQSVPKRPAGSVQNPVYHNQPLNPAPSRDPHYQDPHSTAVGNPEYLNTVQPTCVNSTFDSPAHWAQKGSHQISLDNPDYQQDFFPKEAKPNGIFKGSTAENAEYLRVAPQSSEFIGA

`C=CC(=O)Nc1cc(Nc2ncnc(N3CC(C)(C)c4ncccc43)n2)c(OC)cc1N(C)CCN(C)C` [Compound 17, N-(5-((4-(3,3-dimethyl-2,3-dihydro-1H-pyrrolo[3,2-b]pyridin-1-yl)-1,3,5-triazin-2-yl)amino)-2-((2-(dimethylamino)ethyl)(methyl)amino)-4-methoxyphenyl)acrylamide]: the values for the GI50 in experiment [1], in experiment [3] and in experiment [4] were 58 nM, 36.4 nM and 14.7 nM, respectively. In experiment [2], the “cell activity compared with Osimertinib (AZD9291) against EGFR exon 20 insertion mutations” value is listed as “significant superior cell activity over Osimertinib (AZD9291)”.
The matching figures for `C=CC(=O)Nc1cc(Nc2ncnc(-n3cc(C)c4cnccc43)n2)c(OC)cc1N(C)CCN(C)C` [Compound 18, N-(2-((2-(dimethylamino)ethyl)(methyl)amino)-4-methoxy-5-((4-(3-methyl-1H-pyrrolo[3,2-c]pyridin-1-yl)-1,3,5-triazin-2-yl)amino)phenyl)acrylamide]: 320 nM, 244 nM, 131 nM and “significant superior cell activity over Osimertinib (AZD9291)”.
Take `C=CC(=O)Nc1cc(Nc2nccc(-c3cn(C4CC4)c4ccccc34)n2)c(OC)cc1N(C)CCN(C)C` [Compound 28, N-(5-((4-(1-cyclopropyl-1H-indole)pyrimidin-2-yl)-2-((2-(dimethylamino)ethyl(methyl)amine)-4-methoxyphenyl)acrylamide hydrochloride]: the GI50 in experiment [1] (hydrochloride) turned out to be 237 nM; in experiment [3] (hydrochloride) it was 176 nM; in experiment [4] (hydrochloride), 66.4 nM.
Consider `C=CC(=O)Nc1cc(Nc2nccc(-c3cn(C4CC4)c4ccccc34)n2)c(OC)cc1N(C)CCN(C)C` [Compound 29, N-(5-((4-(1-cyclopropyl-1H-indole)pyrimidin-2-yl)-2-((2-(dimethylamino)ethyl(methyl)amine)-4-methoxyphenyl)acrylamide methanesulfonate], for which the GI50 in experiment [1] was 240 nM; in experiment [3] it was 174 nM; in experiment [4], 60.7 nM.
In the same order, the values of `C=CC(=O)Nc1cc(Nc2nccc(-c3cn(C4CC4)c4ccccc34)n2)c(OC)cc1N(C)CCN(C)C` [Compound 30] are 239 nM, 177 nM and 63.6 nM.
As for `C=CC(=O)Nc1cc(Nc2nccc(-n3cc(CN(C)C)c(-c4ccccc4)n3)n2)c(OC)cc1N1CCOCC1` [Compound 34, N-(5-((4-(4-((dimethylamine)methyl)-3-phenyl-1H-pyrazol-1-yl)pyrimidin-2-yl)amine)-4-methoxy-2-morpholinylphenyl)acrylamide], the GI50 in experiment [1] was found to be 598 nM; in experiment [3], 406 nM; in experiment [4] it was 53.8 nM.
The matching figures for `C=CC(=O)Nc1cccc(Oc2nc(Nc3ccc(N4CCN(C)CC4)c(F)c3)nc3[nH]ccc23)c1` [Compound 35, N-(3-((2-((3-fluoro-4-(4-methylpiperazin-1-yl)phenyl)amine)-7H-pyrazole[2,3-d]pyrimidine-4-yl)oxo)phenyl)acrylamide]: 146 nM, 105 nM and 106 nM.
For `C=CC(=O)Nc1cccc(Oc2nc(Nc3ccc(N4CCN(C)CC4)cc3)nc3ccsc23)c1` [Compound 36, N-(3-((2-((4-(4-methylpiperazin-1-yl)phenyl)amine)thieno[3,2-d]pyrimidin-4-yl)oxo)phenyl)acrylamide], the GI50 turned out to be 454 nM in experiment [1], 325 nM in experiment [3] and 170 nM in experiment [4].
In the same order, the values of `COc1cc2ncnc(Nc3cccc(Cl)c3F)c2cc1OC(=O)N1CCN(C)C[C@H]1C` [Compound 38] are > 3330 nM, > 3330 nM and 71.2 nM.
In the same order, the values of `Cc1cc(C(=O)Nc2nc3cccc(Cl)c3n2[C@@H]2CCCCN(C(=O)/C=C/CN(C)C)C2)ccn1` [Compound 39, (R,E)-N-(7-chloro-1-(1-(4-(dimethylamine)-2-butenoyl)azepane-3-yl)-1H-benzo[d]imidazol-2-yl)-2-methylisonicotinamide] are 963 nM, 455 nM and 309 nM.
As for `C=CC(=O)Nc1cc(Nc2ncnc(-n3ccc4cnccc43)n2)c(OC)cc1N1CC[C@@H]1CN(C)C` [Example 1, (R)—N-(5-((4-(1H-pyrrole[3,2-c]pyridin-1-yl)-1,3,5-triazin-2-yl)amino)-2-(2-((dimethylamino)methyl)azetidine-1-yl)-4-methoxyphenyl)acrylamide], the GI50 in experiment [5] worked out at 280 nM; in experiment [6], 386 nM; in experiment [7], 412 nM. Also, the IC50 in experiment [8] came out at 19.8 nM.
With `COc1cc(N2CC[C@@H]2CN(C)C)c(NC(=O)/C=C/CN(C)C)cc1Nc1ncnc(-n2ccc3cnccc32)n1` [Example 2, (R,E)-N-(5-((4-(1H-pyrrole[3,2-c]pyridin-1-yl)-1,3,5-triazin-2-yl)amino)-2-(2-((dimethylamino)methyl)azetidine-1-yl)-4-methoxyphenyl)-4-(dimethylamino)butene-2-amide], the midpoint of inhibition in experiment [8], the IC50, lay at 130 nM.
Same read-out and setting: under `C=CC(=O)Nc1cc(Nc2ncnc(-n3nc(F)c4ccccc43)n2)c(OC)cc1N(C)CCN(C)C` [Example 3, N-(2-((2-(dimethylamino)ethyl)(methyl)amino)-5-((4-(3-fluoro-1H-indazol-1-yl)-1,3,5-triazin-2-yl)amino)-4-methoxyphenyl)acrylamide] stands 57 nM.
Still for that read-out and setting: under `C=CC(=O)Nc1cc(Nc2nccc(-n3nc(F)c4ccccc43)n2)c(OC)cc1N(C)CCN(C)C` [Example 7] stands 57 nM.

For the origin of these results see patent publication US12258344B2, “Azaaromatic amide derivatives for the treatment of cancer” (SHENZHEN FORWARD PHARMACEUTICALS CO., LTD., priority 2019, dated 2025).
